{"source": "patent US20030068289A1", "about": "“Skin treatment” (Unilever Home & Personal Care USA, Division of Conopco, Inc., priority 2001, published 2003)", "key": {"scalp stratum corneum": {"system": "scalp stratum corneum", "description": "(§1) Panellists consisting of males and females were used. Their scalps were assessed to confirm they were suffering from dandruff. The scalps were divided into two, from the centre of the forehead to the nape of the neck. Four sites of similar scalp condition, two on each side of the head, were identified.\n(§2) Panellists were assessed for scalp condition then suitable subjects given a placebo shampoo (ie. non anti-dandruff) to use for approximately 5 weeks. They were then asked to return, having not washed their hair or applied products to it for 48 hours. They were re-assessed then tape stripped at one site on each side o: the head ([…]). They then returned to be salon washed, by salon operators, 3 times their week with ½ of each head washed in the placebo and the other ½ in a shampoo containing 1% ZnPTO. After approximately 4 weeks, they were assessed and tape stripped again an adjacent sites to the first two.\nSamples were collected by parting the hair and lightly swabbing with an alcohol swab to remove excess sebum. A total of eight sequential tapestrips were taken from each site. These were stored frozen until required for analysis.\nThe corneocytes were removed from the tapes by sonicating in methanol and the free lipid was extracted from them in a chloroform/methanol mixture, which was then dried under nitrogen. The residue was reconstituted in chloroform arid the lipid species separated on amino-propyl bonded silica gel columns.\nThe lipids were then separated and quantified using HPTLC. The lipids analysed were total fatty acids, cholesterol, triglycerides and ceramides. The ceramides were separated into the individual ceramides that are normally seen. The covalently bound lipids were not analysed here. The protein content of the samples were measured and the lipid levels expressed as ng lipid per μg protein. The individual ceramides were also expressed as relative % of total ceramides."}, "dandruff": {"system": "dandruff", "settings": "7 subjects; also decreased for placebo", "description": "as §1, §2"}, "[1]": {"settings": "after vs before, significant only after the ZnPTO treatment"}}}
{"substance": "zinc pyrithione [ZnPTO]", "values": [{"measurement": "Relative % lipids in scalp stratum corneum: Cholesterol", "setting": "scalp stratum corneum; After ZnPTO, approx 4 weeks, spread 1.4 in row below, Before ZnPTO 11.6 ± 4.5", "result": 8.8, "unit": "%"}, {"measurement": "Relative % lipids in scalp stratum corneum: Ceramides", "setting": "scalp stratum corneum; After ZnPTO, approx 4 weeks, spread 3.8 in row below, Before ZnPTO 31.0 ± 8.1", "result": 16.4, "unit": "%"}, {"measurement": "Relative % lipids in scalp stratum corneum: Fatty Acids", "setting": "scalp stratum corneum; After ZnPTO, approx 4 weeks, spread 16.6 in row below, Before ZnPTO 36.0 ± 12.5", "result": 31.8, "unit": "%"}, {"measurement": "Relative % lipids in scalp stratum corneum: Triglycerides", "setting": "scalp stratum corneum; After ZnPTO, approx 4 weeks, spread 19.2 in row below, Before ZnPTO 21.4 ± 4.8", "result": 43.0, "unit": "%"}, {"measurement": "Mass level of lipid: Fatty Acids", "setting": "scalp stratum corneum; After ZnPTO: shampoo containing 1% ZnPTO, 3 washes per week, approx 4 weeks, half-head, spread 748.6 in row below, Before ZnPTO 364.9 ± 231.9", "result": 1518.1, "unit": "ng lipid per μg protein"}, {"measurement": "Mass level of lipid: Cholesterol", "setting": "scalp stratum corneum; After ZnPTO: shampoo containing 1% ZnPTO, approx 4 weeks, spread 221.8 in row below, Before ZnPTO 108.9 ± 44.3", "result": 478.3, "unit": "ng lipid per μg protein"}, {"measurement": "Mass level of lipid: Ceramides", "setting": "scalp stratum corneum; After ZnPTO: shampoo containing 1% ZnPTO, approx 4 weeks, spread 243.9 in row below, Before ZnPTO 284.3 ± 62.4", "result": 841.5, "unit": "ng lipid per μg protein"}, {"measurement": "Mass level of lipid: Triglycerides", "setting": "scalp stratum corneum; After ZnPTO: shampoo containing 1% ZnPTO, approx 4 weeks, spread 1911.2 in row below, Before ZnPTO 208.5 ± 77.1", "result": 2539.7, "unit": "ng lipid per μg protein"}, {"measurement": "Mass level of lipid: Total Lipid", "setting": "scalp stratum corneum; After ZnPTO: shampoo containing 1% ZnPTO, approx 4 weeks, spread 2056.0 in row below, Before ZnPTO 966.6 ± 282.5", "result": 5377.6, "unit": "ng lipid per μg protein"}, {"measurement": "Ceramide 6i as % of total ceramides", "setting": "scalp stratum corneum; After ZnPTO, spread 2.0 in row below, Before ZnPTO 9.2 ± 1.1", "result": 8.0, "unit": "%"}, {"measurement": "Ceramide 6ii as % of total ceramides", "setting": "scalp stratum corneum; After ZnPTO, spread 2.1 in row below, Before ZnPTO 13.8 ± 2.1", "result": 8.0, "unit": "%"}, {"measurement": "Ceramide 3a as % of total ceramides", "setting": "scalp stratum corneum; After ZnPTO, spread 2.8 in row below, Before ZnPTO 12.4 ± 1.7", "result": 19.2, "unit": "%"}, {"measurement": "Ceramide 3 as % of total ceramides", "setting": "scalp stratum corneum; After ZnPTO, spread 4.0 in row below, Before ZnPTO 11.8 ± 3.9", "result": 5.9, "unit": "%"}, {"measurement": "Ceramide 1 as % of total ceramides", "setting": "scalp stratum corneum; After ZnPTO, spread 5.3 in row below, Before ZnPTO 11.3 ± 4.1", "result": 14.6, "unit": "%"}, {"measurement": "Ceramide 2 as % of total ceramides", "setting": "scalp stratum corneum; After ZnPTO, spread 5.4 in row below, Before ZnPTO 19.4 ± 4.5", "result": 22.3, "unit": "%"}, {"measurement": "Ceramide 4/5 as % of total ceramides", "setting": "scalp stratum corneum; After ZnPTO, spread 5.9 in row below, Before ZnPTO 22.2 ± 3.0", "result": 22.1, "unit": "%"}, {"measurement": "Relative composition of the samples after treatment, placebo vs ZnPTO", "setting": "scalp stratum corneum; after treatment", "result": "no significant differences"}, {"measurement": "All the lipids measured, mass levels after ZnPTO treatment compared with before treatment", "setting": "scalp stratum corneum; after vs before treatment", "result": "significantly increased"}, {"measurement": "Change in relative % cholesterol with treatment", "setting": "scalp stratum corneum; after vs before treatment", "result": "do not change"}, {"measurement": "Change in relative % fatty acid with treatment", "setting": "scalp stratum corneum; after vs before treatment", "result": "do not change"}, {"measurement": "Change in relative % ceramide after treatment", "setting": "scalp stratum corneum; after vs before treatment, also after placebo", "result": "significantly decreases"}, {"measurement": "Change in % triglyceride after treatment", "setting": "scalp stratum corneum; after vs before treatment, significant for ZnPTO", "result": "increase in % triglyceride, which is significant for ZnPTO"}, {"measurement": "Change in relative % ceramide 6ii after treatment", "setting": "scalp stratum corneum; after vs before, after both treatments", "result": "statistically significant decrease"}, {"measurement": "Change in relative % ceramide 3a after treatment", "setting": "scalp stratum corneum; [1]", "result": "increase in ceramide 3a"}, {"measurement": "Change in relative % ceramide 3 after treatment", "setting": "scalp stratum corneum; [1]", "result": "decrease in ceramide 3"}, {"measurement": "Level of ceramide, side treated with ZnPTO vs side treated with placebo", "setting": "scalp stratum corneum; sites sampled after treatment", "result": "significantly higher"}, {"measurement": "Level of cholesterol, side treated with ZnPTO vs side treated with placebo", "setting": "scalp stratum corneum; sites sampled after treatment", "result": "significantly higher"}, {"measurement": "Mean dandruff scores after treatment compared with before treatment", "setting": "dandruff", "result": "decreased"}]}
